Experimental data reported in BindingDB's records for doi:10.3109/14756366.2012.692086 (Giresun University, 2013).

The molecules below were run against T1, Neutrophil elastase (Homo sapiens, UniProt P08246) (assay: Elastase Activity Assay).
T1 sequence (P08246 whole entry): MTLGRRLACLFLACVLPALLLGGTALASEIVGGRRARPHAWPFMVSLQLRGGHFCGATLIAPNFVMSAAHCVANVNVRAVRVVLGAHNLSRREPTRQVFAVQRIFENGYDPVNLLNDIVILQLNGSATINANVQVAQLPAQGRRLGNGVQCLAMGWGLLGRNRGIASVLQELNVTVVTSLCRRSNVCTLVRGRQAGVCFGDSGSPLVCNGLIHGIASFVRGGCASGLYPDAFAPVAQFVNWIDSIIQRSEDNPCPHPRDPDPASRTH
Source text: The elastase inhibitor activity was examined using N-succinyl-Ala-Ala-Ala-pnitroanilide (STANA) as the substrate and by the measuring of the release of p-nitroaniline at 410 nm [James et al., Biochemistry, 35:9090-9096].
An IC50 of 416 nM was found for C[C@H]1[C@H](C)CC[C@]2(C(=O)O)CC[C@]3(C)C(=CC[C@@H]4[C@@]5(C)CC[C@H](O)C(C)(C)[C@@H]5CC[C@]43C)[C@H]12 [3beta-hydroxyurs-12-en-28-oic acid] in this work.
An IC50 of 125 nM was found for CN(CCN(Cc1cc(=O)oc2c(O)c(O)ccc12)c1ccccc1)c1ccccc1 [4,4'-(Ethane-1,2-diylbis(phenylazanediyl))bis(methylene)bis(6,7-dihydroxy-2H-chromen-2-one) (7)] in this work.
An IC50 of 127 nM was found for CN(CCN(Cc1cc(=O)oc2cc(O)c(O)cc12)c1ccccc1)c1ccccc1 [4,4'-(Ethane-1,2-diylbis(phenylazanediyl))bis(methylene)bis(7,8-dihydroxy-2H-chromen-2-one) (3)] in this work.
